From patent US9181259B2 (LEO PHARMA A/S, priority 2012, dated 2015)

Experiments:
[1] = Hepatic intrinsic clearance following incubation in human liver microsomes; type: in vitro ADME; conditions: NADPH regenerating system, 0-30 min, 37 °C
Protocol: Hepatic Extraction Ratio from Hepatic Intrinsic Clearance Following Incubation in Human Liver Microsomes
The general procedure consists of an automated incubation system and LC-MS/MS analysis with human liver microsomes. Human liver microsomes are thawed rapidly in a waterbath at 37° C. and kept on ice until use. The human liver microsomes are diluted with 50 mM potassium phosphate buffer pH 7.4 to a protein concentration of 0.55 mg/mL. Test compounds and positive controls (Verapamil and Dextromethorphan, positive controls for CYP3A4 for CYP2D6 isoforms, respectively) are dissolved in methanol (or other appropriate solvent, if necessary) in order to obtain a 5 mM solution which is further diluted to the concentration of 50 μM. The stock solutions are prepared immediately before the test.
5 μL of 50 μM test compounds and controls are added to 445 μL-of the 0.55 mg/mL microsomes solution and the incubation mixture are pre-warmed at 37° C. for 5 minutes.
The incubation reactions are initiated by adding 50 μL of pre-warmed NADPH regenerating system to the incubation mixtures. 50 μL-aliquots will be taken from the incubation mixtures at: 0, 3, 6, 9, 15 and 30 minutes and the reactions are stopped by adding 100 μL of ACN containing Rolipram, used as generic Internal Standard (1S). Samples are then diluted with 120 μL of Milli-Q water and centrifuged at 3000 rpm for 10 minutes, prior the LC-MS/MS analysis.
The integrated peak areas for test compounds at the selected time points are divided by the respective peak areas of the IS and the percent of parent remaining is calculated by normalizing the peak area ratio of parent to IS at 0 min. Observed rate constant (kobs) for parent degradation is calculated by determining the slope of the line of the graph of the natural log of percentage parent remaining versus time of incubation. From the rate of depletion (min-1) and volume of the incubation (mL), clearance is estimated. This is scaled for the protein in the incubation relative to that in the intact liver, for all species (mL/min/g liver).
Values for the Human in vitro Clint are expressed as mL/min/g liver.
Assuming a liver weight of 25.7 g/kg and a liver blood flow of 20.7 mL/min/kg, the hepatic extraction ratio, Eh, can be derived from the Human in vitro Clint:
E.g. a Human in vitro Clint of 2.4 mL/min/g liver corresponds to a hepatic extraction ratio of 75%.
Some compounds of the present invention were tested according to example 121.

NK1 receptor = molecular target: T1, NK1 receptor (Homo sapiens, UniProt P25103); assay: NK1 receptor mediated intracellular [Ca2+] mobilization in U251 MG cells using FLIPR; type: cell-based; conditions: antagonist potency against Substance P (EC80), normalized to 100 nM Aprepitant, read-out: U251MG (FLIPR pIC50) (converted)
T1 construct: Measurement of NK1 Receptor Mediated Intracellular [Ca^2+]; Mobilization in U251 MG Cells Using FLIPR; endogenous in cells; host or cells: U251 MG cells
T1 sequence (P25103 whole entry): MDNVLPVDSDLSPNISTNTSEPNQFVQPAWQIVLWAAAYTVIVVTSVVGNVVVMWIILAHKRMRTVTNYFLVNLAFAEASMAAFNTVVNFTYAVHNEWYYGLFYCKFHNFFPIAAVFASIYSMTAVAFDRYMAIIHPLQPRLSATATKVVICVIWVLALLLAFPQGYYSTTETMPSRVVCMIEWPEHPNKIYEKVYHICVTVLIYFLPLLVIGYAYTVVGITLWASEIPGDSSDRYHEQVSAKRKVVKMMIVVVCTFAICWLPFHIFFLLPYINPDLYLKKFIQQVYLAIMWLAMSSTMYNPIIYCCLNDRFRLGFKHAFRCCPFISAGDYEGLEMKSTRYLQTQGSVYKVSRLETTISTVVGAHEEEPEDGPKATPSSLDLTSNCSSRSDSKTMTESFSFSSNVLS
Procedure, shortened: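 Fluo-4-loaded U251 MG cells were preincubated with compound (0.5% DMSO final), with any agonist effect read for 5 min, then 10 min more at 37 °C before Substance P at EC80. Peak FLIPR fluorescence change was read, and IC50 came from a four-parameter fit as the midpoint between fitted top and bottom.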

Compound: Cc1cc(CN(C)C(=O)N2CCN3C(=O)C(CCO)(CCO)C[C@H]3[C@@H]2c2ccccc2C)cc(C(F)(F)F)c1 [Compound 77, (1S,8aS)-7,7-bis(2-hydroxyethyl)-N-methyl-N-(3-methyl-5-(trifluoromethyl)benzyl)-6-oxo-1-o-tolylhexahydropyrrolo[1,2-a]pyrazine-2(1H)-carboxamide]
- Human in vitro Clint (mL/min/g liver) [1]: 15 mL/min/g liver
- IC50 (NK1 receptor): 0.0631 nM

Compound: COc1cc(CN(C)C(=O)N2CCN3C(=O)C(CCO)(CCO)C[C@H]3[C@@H]2c2ccccc2C)cc(C(F)(F)F)c1 [Compound 78, (1S,8aS)-7,7-bis(2-hydroxyethyl)-N-(3-methoxy-5-(trifluoromethyl)benzyl)-N-methyl-6-oxo-1-o-tolylhexahydropyrrolo[1,2-a]pyrazine-2(1H)-carboxamide]
- Human in vitro Clint (mL/min/g liver) [1]: 4.6 mL/min/g liver
- IC50 (NK1 receptor): 0.112 nM

Compound: Cc1ccccc1[C@H]1[C@@H]2CC(CCO)(CCO)C(=O)N2CCN1C(=O)N(C)Cc1cc(Cl)cc(C(F)(F)F)c1 [Compound 79, (1S,8aS)-N-(3-chloro-5-(trifluoromethyl)benzyl)-7,7-bis(2-hydroxyethyl)-N-methyl-6-oxo-1-o-tolylhexahydropyrrolo[1,2-a]pyrazine-2(1H)-carboxamide]
- Human in vitro Clint (mL/min/g liver) [1]: 14 mL/min/g liver
- IC50 (NK1 receptor): 0.105 nM

Compound: CCC(c1cc(C(F)(F)F)cc(C(F)(F)F)c1)N(C)C(=O)N1CCN2C(=O)C(CCO)(CCO)C[C@H]2[C@@H]1c1ccccc1C (stereo partly drawn) [Compound 83, (1S,8aS)-N-(1-(3,5-bis(trifluoromethyl)phenyl)propyl)-7,7-bis(2-hydroxyethyl)-N-methyl-6-oxo-1-o-tolylhexahydropyrrolo[1,2-a]pyrazine-2(1H)-carboxamide]
- Human in vitro Clint (mL/min/g liver) [1]: 7.8 mL/min/g liver
- IC50 (NK1 receptor): 0.132 nM

Compound: Cc1cc([C@H](C)N(C)C(=O)N2CCN3C(=O)C(CCO)(CCO)C[C@H]3[C@@H]2c2ccccc2C)cc(C(F)(F)F)c1 [Compound 84, (1S,8aS)-7,7-bis(2-hydroxyethyl)-N-methyl-N-((S)-1-(3-methyl-5-(trifluoromethyl)phenyl)ethyl)-6-oxo-1-o-tolylhexahydropyrrolo[1,2-a]pyrazine-2(1H)-carboxamide]
- Human in vitro Clint (mL/min/g liver) [1]: 8.5 mL/min/g liver
- IC50 (NK1 receptor): 0.0631 nM

Compound: Cc1cc([C@@H](C)N(C)C(=O)N2CCN3C(=O)C(CCO)(CCO)C[C@H]3[C@@H]2c2ccccc2C)cc(C(F)(F)F)c1 [Compound 85, (1S,8aS)-7,7-bis(2-hydroxyethyl)-N-methyl-N-((R)-1-(3-methyl-5-(trifluoromethyl)phenyl)ethyl)-6-oxo-1-o-tolylhexahydropyrrolo[1,2-a]pyrazine-2(1H)-carboxamide]
- Human in vitro Clint (mL/min/g liver) [1]: 17 mL/min/g liver
- IC50 (NK1 receptor): 0.0794 nM

Compound: Cc1ccccc1[C@H]1[C@@H]2CC(CCO)(CCO)C(=O)N2CCN1C(=O)N(C)[C@H](CO)c1cc(C(F)(F)F)cc(C(F)(F)F)c1 [Compound 86, (1S,8aS)-N-((S)-1-(3,5-bis(trifluoromethyl)phenyl)-2-hydroxyethyl)-7,7-bis(2-hydroxyethyl)-N-methyl-6-oxo-1-o-tolylhexahydropyrrolo[1,2-a]pyrazine-2(1H)-carboxamide]
- Human in vitro Clint (mL/min/g liver) [1]: 2.8 mL/min/g liver
- IC50 (NK1 receptor): 0.129 nM

Compound: Cc1ccccc1[C@H]1[C@@H]2CC(CCO)(CCO)C(=O)N2CCN1C(=O)N(C)[C@H](C)c1cccc(C(F)(F)F)c1 [Compound 88, (1S,8aS)-7,7-bis(2-hydroxyethyl)-N-methyl-6-oxo-1-o-tolyl-N-((R)-1-(3-(trifluoromethyl)phenyl)ethyl)hexa hydropyrrolo[1,2-a]pyrazine-2(1H)-carboxamide]
- Human in vitro Clint (mL/min/g liver) [1]: 13 mL/min/g liver
- IC50 (NK1 receptor): 0.0631 nM

Compound: Cc1ccccc1[C@H]1[C@@H]2CC(CCO)(CCO)C(=O)N2CCN1C(=O)N(C)[C@H](C)c1cc(Cl)cc(C(F)(F)F)c1 [Compound 89, (1S,8aS)-N-((R)-1-(3-chloro-5-(trifluoromethyl)phenyl)ethyl)-7,7-bis(2-hydroxyethyl)-N-methyl-6-oxo-1-o-tolylhexahydropyrrolo[1,2-a]pyrazine-2(1H)-carboxamide]
- Human in vitro Clint (mL/min/g liver) [1]: 15 mL/min/g liver
- IC50 (NK1 receptor): 0.126 nM

Compound: Cc1ccccc1[C@H]1[C@@H]2CC(CCO)(CCO)C(=O)N2CCN1C(=O)N(C)[C@@H](C)c1cc(Cl)cc(C(F)(F)F)c1 [Compound 90, (1S,8aS)-N-((S)-1-(3-chloro-5-(trifluoromethyl)phenyl)ethyl)-7,7-bis(2-hydroxyethyl)-N-methyl-6-oxo-1-o-tolylhexahydropyrrolo[1,2-a]pyrazine-2(1H)-carboxamide]
- Human in vitro Clint (mL/min/g liver) [1]: 7.6 mL/min/g liver
- IC50 (NK1 receptor): 0.0398 nM

Compound: COc1cc([C@@H](C)N(C)C(=O)N2CCN3C(=O)C(CCO)(CCO)C[C@H]3[C@@H]2c2ccccc2C)cc(C(F)(F)F)c1 [Compound 91, (1S,8aS)-7,7-bis(2-hydroxyethyl)-N-((R)-1-(3-methoxy-5-(trifluoromethyl)phenyl)ethyl)-N-methyl-6-oxo-1-o-tolylhexahydropyrrolo[1,2-a]pyrazine-2(1H)-carboxamide]
- Human in vitro Clint (mL/min/g liver) [1]: 8.5 mL/min/g liver
- IC50 (NK1 receptor): 0.0631 nM

Compound: Cc1ccccc1[C@H]1[C@@H]2CC(CCO)(CCO)C(=O)N2CCN1C(=O)N(C)[C@@H](C)c1cc(F)cc(C(F)(F)F)c1 [Compound 92, (1S,8aS)-N-((S)-1-(3-fluoro-5-(trifluoromethyl)phenyl)ethyl)-7,7-bis(2-hydroxyethyl)-N-methyl-6-oxo-1-o-tolylhexahydropyrrolo[1,2-a]pyrazine-2(1H)-carboxamide]
- Human in vitro Clint (mL/min/g liver) [1]: 11 mL/min/g liver
- IC50 (NK1 receptor): 0.0158 nM

Compound: Cc1ccccc1[C@H]1[C@@H]2CC(CCO)(CCO)C(=O)N2CCN1C(=O)N(C)[C@H](C)c1cc(F)cc(C(F)(F)F)c1 [Compound 93, (1S,8aS)-N-((R)-1-(3-fluoro-5-(trifluoromethyl)phenyl)ethyl)-7,7-bis(2-hydroxyethyl)-N-methyl-6-oxo-1-o-tolylhexahydropyrrolo[1,2-a]pyrazine-2(1H)-carboxamide]
- Human in vitro Clint (mL/min/g liver) [1]: 10 mL/min/g liver
- IC50 (NK1 receptor): 0.0794 nM

Compound: Cc1ccccc1[C@H]1[C@@H]2CC(CCO)(CCO)C(=O)N2CCN1C(=O)N(C)[C@H](CO)c1cc(F)cc(C(F)(F)F)c1 [Compound 94, (1S,8aS)-N-((S)-1-(3-fluoro-5-(trifluoromethyl)phenyl)-2-hydroxyethyl)-7,7-bis(2-hydroxyethyl)-N-methyl-6-oxo-1-o-tolylhexahydropyrrolo[1,2-a]pyrazine-2(1H)-carboxamide]
- Human in vitro Clint (mL/min/g liver) [1]: 3.4 mL/min/g liver
- IC50 (NK1 receptor): 0.0501 nM

Compound: COc1cc([C@@H](CO)N(C)C(=O)N2CCN3C(=O)C(CCO)(CCO)C[C@H]3[C@@H]2c2ccccc2C)cc(C(F)(F)F)c1 [Compound 95, (1S,8aS)-N-((S)-2-hydroxy-1-(3-methoxy-5-(trifluoromethyl)phenyl)ethyl)-7,7-bis(2-hydroxyethyl)-N-methyl-6-oxo-1-o-tolylhexahydropyrrolo[1,2-a]pyrazine-2(1H)-carboxamide]
- Human in vitro Clint (mL/min/g liver) [1]: 2.1 mL/min/g liver
- IC50 (NK1 receptor): 0.155 nM

Compound: Cc1ccccc1[C@H]1[C@@H]2CC(CCO)(CCO)C(=O)N2CCN1C(=O)N(C)[C@H](CO)c1cccc(C(F)(F)F)c1 [Compound 96, (1S,8aS)-N-((S)-2-hydroxy-1-(3-(trifluoromethyl)phenyl)ethyl)-7,7-bis(2-hydroxyethyl)-N-methyl-6-oxo-1-o-tolylhexahydropyrrolo[1,2-a]pyrazine-2(1H)-carboxamide]
- Human in vitro Clint (mL/min/g liver) [1]: 4.8 mL/min/g liver
- IC50 (NK1 receptor): 0.0794 nM
